From patent US8178658B2 (Dow AgroSciences, LLC, priority 2008, dated 2012) come the findings set out here.

The test system of assay [1] is beet armyworm (BAW; Spodoptera exigua: Lepidoptera). Nature of the assay: 128-well diet tray assay on beet armyworm (BAW 50). It is filed as in vivo. Particulars: 128-well diet tray assay; 50 μg/cm^2 of test compound on diet; second instar BAW larvae; mortality class. Put shortly: (§1)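 Mortality is the read-out for both formats, scored against a 50% cut-off. Microplate wells received eggs over diet carrying 12 μg test compound, kept in darkness at 29° C for 6 d, six replicates averaged. Diet-tray wells held second instar larvae on diet at 50 μg/cm^2, kept 6 d at 25° C under 14:10 photoperiod.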

Assay [2] has the same test system. Nature of the assay: 96-well microtiter plate-based high throughput (HTS) diet bioassay on beet armyworm (BAW HTS). It counts as in vivo. The conditions noted are these: BAW eggs, 12 μg test compound per well, mortality at 6 d post-treatment, mortality class. The procedure, abridged:
as §1

[3] abbreviates: 96-well microtiter plate HTS diet assay.

For the compound `CCOC1C(OC)C(C)OC(ON=Cc2cccc(-c3ncc(-c4cccc(OC(F)(F)F)c4)cn3)c2)C1OC` (stereo not drawn) [Compound 149], in assay [1], the “BAW 50 ug/cm2” value was “A (the compound was tested and at least 50 percent mortality was observed)”. The “BAW HTS” value in assay [2] (96-well HTS diet assay) is “B (either (1) the compound was tested and less than 50 percent mortality was observed or (2) the compound was not tested)”; in assay [2] (setting [3]), “B (either (1) the compound was tested and less than 50 percent mortality was observed or (2) the compound was not tested)”.
As to `CCOC1C(OC)C(C)OC(ON=Cc2ccc(-c3ncc(-c4ccc(C)cc4)cn3)cc2)C1OC` (stereo not drawn) [Compound 150], in assay [1], the “BAW 50 ug/cm2” value was “B (either (1) the compound was tested and less than 50 percent mortality was observed or (2) the compound was not tested)”. Moreover, the “BAW HTS” value is “B (either (1) the compound was tested and less than 50 percent mortality was observed or (2) the compound was not tested)” in assay [2] (96-well HTS diet assay); “B (either (1) the compound was tested and less than 50 percent mortality was observed or (2) the compound was not tested)” in assay [2] (setting [3]).
Consider `CCOC1C(OC)C(C)OC(ON=Cc2ccc(-c3ncc(-c4ccc(C(F)(F)F)cc4)cn3)cc2)C1OC` (stereo not drawn) [Compound 151], for which, in assay [1], the “BAW 50 ug/cm2” value was “A (the compound was tested and at least 50 percent mortality was observed)”. In addition, the “BAW HTS” value in assay [2] (96-well HTS diet assay) is “B (either (1) the compound was tested and less than 50 percent mortality was observed or (2) the compound was not tested)”; in assay [2] (setting [3]), “B (either (1) the compound was tested and less than 50 percent mortality was observed or (2) the compound was not tested)”.
As to `CCOC1C(OC)C(C)OC(ON=Cc2ccc(-c3ncc(-c4ccccc4C)cn3)cc2)C1OC` (stereo not drawn) [Compound 152], the “BAW 50 ug/cm2” value in assay [1] was “A (the compound was tested and at least 50 percent mortality was observed)”. The “BAW HTS” value was “B (either (1) the compound was tested and less than 50 percent mortality was observed or (2) the compound was not tested)” in assay [2] (96-well HTS diet assay); “B (either (1) the compound was tested and less than 50 percent mortality was observed or (2) the compound was not tested)” in assay [2] (setting [3]).
Consider `CCOC1C(OC)C(C)OC(ON=Cc2ccc(-c3ncc(-c4ccc(F)cc4)cn3)cc2)C1OC` (stereo not drawn) [Compound 153], for which the “BAW 50 ug/cm2” value in assay [1] is “A (the compound was tested and at least 50 percent mortality was observed)”. For the same compound, the “BAW HTS” value was “B (either (1) the compound was tested and less than 50 percent mortality was observed or (2) the compound was not tested)” in assay [2] (96-well HTS diet assay); “B (either (1) the compound was tested and less than 50 percent mortality was observed or (2) the compound was not tested)” in assay [2] (setting [3]).
Take `CCOC1C(OC)C(C)OC(ON=Cc2ccc(-c3ncc(-c4ccc(C#N)cc4)cn3)cc2)C1OC` (stereo not drawn) [Compound 154]: the “BAW 50 ug/cm2” value in assay [1] was “A (the compound was tested and at least 50 percent mortality was observed)”. Besides, the “BAW HTS” value in assay [2] (96-well HTS diet assay) was “B (either (1) the compound was tested and less than 50 percent mortality was observed or (2) the compound was not tested)”; in assay [2] (setting [3]) it was “B (either (1) the compound was tested and less than 50 percent mortality was observed or (2) the compound was not tested)”.
As for `CCOC1C(OC)C(C)OC(ON=Cc2ccc(-c3ncc(-c4ccccc4OC(F)(F)F)cn3)cc2)C1OC` (stereo not drawn) [Compound 156], in assay [1], the “BAW 50 ug/cm2” value is “A (the compound was tested and at least 50 percent mortality was observed)”. The “BAW HTS” value in assay [2] (96-well HTS diet assay) was “B (either (1) the compound was tested and less than 50 percent mortality was observed or (2) the compound was not tested)”; in assay [2] (setting [3]), “B (either (1) the compound was tested and less than 50 percent mortality was observed or (2) the compound was not tested)”.
Turning to `COC1C(C)OC(ON=Cc2ccc(-c3ncnc(-c4ccc(C(F)(F)F)cc4)n3)cc2)C(OC)C1OC` (stereo not drawn) [Compound 157], the “BAW 50 ug/cm2” value in assay [1] is “B (either (1) the compound was tested and less than 50 percent mortality was observed or (2) the compound was not tested)”. Further, the “BAW HTS” value in assay [2] (96-well HTS diet assay) was “A (the compound was tested and at least 50 percent mortality was observed)”; in assay [2] (setting [3]) it was “A (the compound was tested and at least 50 percent mortality was observed)”.
